These results are taken from ChEMBL document CHEMBL1201862, “PubChem BioAssay data set” (2004).

The source made the active and inactive calls. Bounds are passed on as bounds.

Experiment [1] addresses Tyrosine-protein phosphatase non-receptor type 11 (Homo sapiens, UniProt Q06124). The experiment is described as follows: SHP2 phosphatase inhibition, dose response, selectivity assay for STEP inhibitor project, biochemical (AID 602367). It is filed as functional. Conditions: read-out: IC50_Mean.
Experiment [2] addresses Tyrosine-protein phosphatase non-receptor type 5 (Homo sapiens, UniProt P54829). The experiment in a line: STEP phosphatase inhibitors, confirmation, biochemical, fluorescence intensity, uHTS hits (AID 602372). It is filed as functional. The conditions noted are these: read-out: IC50_Mean.
Experiment [3] deals with Dual specificity protein phosphatase 3 (Homo sapiens, UniProt P51452). The experiment in a line: VHR phosphatase inhibition, dose response, selectivity assay for STEP inhibitor project, biochemical (AID 602374). The format is functional. The conditions noted are these: read-out: IC50_Mean.
The target in experiment [4] is T1, RNA-binding protein pos-1 (Caenorhabditis elegans, UniProt G5EF15).
T1 sequence (G5EF15 whole entry): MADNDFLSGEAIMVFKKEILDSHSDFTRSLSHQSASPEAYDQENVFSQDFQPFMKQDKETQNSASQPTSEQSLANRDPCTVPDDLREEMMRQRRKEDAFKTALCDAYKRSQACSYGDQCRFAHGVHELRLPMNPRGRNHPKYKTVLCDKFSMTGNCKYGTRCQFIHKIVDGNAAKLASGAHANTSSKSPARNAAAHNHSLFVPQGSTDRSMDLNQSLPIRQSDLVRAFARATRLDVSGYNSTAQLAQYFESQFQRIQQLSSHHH
The experiment is described as follows: inhibitors of POS-1/mex-3 RNA binding, dose response, biochemical, fluorescence polarization (AID 1964).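 Further: purified POS-1 fused to maltose binding protein made in E. coli; potency of compounds blocking POS-1 binding to fluorescent RNA.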

The target of experiment [5] is T2, Zinc finger protein mex-5 (Caenorhabditis elegans, UniProt Q9XUB2).
T2 sequence (Q9XUB2 whole entry): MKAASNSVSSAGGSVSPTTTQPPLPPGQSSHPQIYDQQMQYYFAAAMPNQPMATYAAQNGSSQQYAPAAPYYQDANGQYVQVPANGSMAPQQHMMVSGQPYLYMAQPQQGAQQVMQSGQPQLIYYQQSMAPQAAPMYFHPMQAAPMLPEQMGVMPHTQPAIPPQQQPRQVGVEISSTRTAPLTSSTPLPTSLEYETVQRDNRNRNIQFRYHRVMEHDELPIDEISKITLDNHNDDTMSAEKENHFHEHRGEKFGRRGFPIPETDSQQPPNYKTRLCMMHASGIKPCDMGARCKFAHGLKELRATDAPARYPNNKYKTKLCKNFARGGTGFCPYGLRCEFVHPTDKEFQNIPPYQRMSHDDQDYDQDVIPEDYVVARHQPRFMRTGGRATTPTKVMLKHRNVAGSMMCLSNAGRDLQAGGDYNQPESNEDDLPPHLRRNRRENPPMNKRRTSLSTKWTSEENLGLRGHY
The experiment is described as follows: MEX-5/TCR-2 RNA interaction inhibitors, dose response, biochemical, C. elegans, fluorescence polarization (AID 1960).

In experiment [6] the target is T3, Low molecular weight phosphotyrosine protein phosphatase (Homo sapiens, UniProt P24666). It is filed as functional. The conditions noted are these: read-out: IC50_Mean.
Experiment [7] concerns the target T3, Low molecular weight phosphotyrosine protein phosphatase. It is filed as functional. The conditions noted are these: read-out: IC50_Mean. This is another data set of the same source.
In experiment [8] the target is Luciferin 4-monooxygenase (Photinus pyralis, UniProt P08659). The experiment is described as follows: firefly luciferase enzyme inhibitors, dose response, biochemical, luminescence (AID 1891).
Experiment [9] is described as follows: Luminescence Cell-Based Dose Confirmation HTS to Identify Inhibitors of Platelet Dense Granule Release. [Related pubchem assays: 1663 (Primary HTS), 1678 (Summary of Project)]. The format is functional.
Experiment [10] addresses Nuclear receptor subfamily 5 group A member 2 (Homo sapiens, UniProt O00482). The format is functional, cell-based.
The target of the next experiment is Steroidogenic factor 1 (Homo sapiens, UniProt Q13285). The experiment is described as follows: Counterscreen for inverse agonists of the liver receptor homolog-1 (LRH-1; NR5A2): Luminescence-based cell-based high throughput dose response assay to identify inverse agonists of the Steroidogenic Factor 1 Nuclear Receptor (SF1; NR5A1). The format is functional.
Experiment [11] can be described thus: StAR promoter reporter inhibition counter-screen, dose response, counter-screen for LRH-1 inverse agonist project, cell-based, luminescence, luciferase reporter (AID 651969). The format is functional.
A short description of experiment [12]: inhibitors of firefly luciferase expression or activity, dose response, H4 neuroglioma cells, luminescence (AID 1990). The format is functional, cell-based.
Experiment [13] is described as follows: Luminescence Cell-Based Dose Response HTS to Identify Inhibitors of 5'UTR Stem-Loop Driven Prion Protein mRNA Translation in H4 Neuroglioblastoma Cells. [Related pubchem assays: 1827 (Project Summary), 1813 (Primary HTS)]. The format is functional.
Experiment [14] is described as follows: inhibitors of SNCA 5'UTR-driven reporter translation, confirmation, H4 neuroglioma cells, luminescence (AID 1988). It is filed as functional, cell-based.
Experiment [15] in a line: THP-1 cell cytotoxicity, dose response, cytotoxicity control for non-replicating M. tuberculosis project (AID 489025). It is filed as functional.
Experiment [16] is described as follows: HepG2 cell cytotoxicity, dose response, cytotoxicity control for non-replicating M. tuberculosis project (AID 489018). It is filed as functional. Conditions: Mycobacterium tuberculosis.
Experiment [17] can be described thus: Vero E6 cell cytotoxicity, dose response, cytotoxicity control for non-replicating M. tuberculosis project, secondary assay (AID 492998). The format is functional, VeroE6. Conditions: Vero C1008.
The next experiment can be described thus: cells. The format is functional.
Experiment [18] concerns the target T4, Melanocortin receptor 4 (Homo sapiens, UniProt P32245). The format is functional, cell-based.
Experiment [19] concerns the target T5, Replicative DNA helicase DnaB (Mycobacterium tuberculosis, UniProt P9WMR3).
T5 sequence (P9WMR3 whole entry): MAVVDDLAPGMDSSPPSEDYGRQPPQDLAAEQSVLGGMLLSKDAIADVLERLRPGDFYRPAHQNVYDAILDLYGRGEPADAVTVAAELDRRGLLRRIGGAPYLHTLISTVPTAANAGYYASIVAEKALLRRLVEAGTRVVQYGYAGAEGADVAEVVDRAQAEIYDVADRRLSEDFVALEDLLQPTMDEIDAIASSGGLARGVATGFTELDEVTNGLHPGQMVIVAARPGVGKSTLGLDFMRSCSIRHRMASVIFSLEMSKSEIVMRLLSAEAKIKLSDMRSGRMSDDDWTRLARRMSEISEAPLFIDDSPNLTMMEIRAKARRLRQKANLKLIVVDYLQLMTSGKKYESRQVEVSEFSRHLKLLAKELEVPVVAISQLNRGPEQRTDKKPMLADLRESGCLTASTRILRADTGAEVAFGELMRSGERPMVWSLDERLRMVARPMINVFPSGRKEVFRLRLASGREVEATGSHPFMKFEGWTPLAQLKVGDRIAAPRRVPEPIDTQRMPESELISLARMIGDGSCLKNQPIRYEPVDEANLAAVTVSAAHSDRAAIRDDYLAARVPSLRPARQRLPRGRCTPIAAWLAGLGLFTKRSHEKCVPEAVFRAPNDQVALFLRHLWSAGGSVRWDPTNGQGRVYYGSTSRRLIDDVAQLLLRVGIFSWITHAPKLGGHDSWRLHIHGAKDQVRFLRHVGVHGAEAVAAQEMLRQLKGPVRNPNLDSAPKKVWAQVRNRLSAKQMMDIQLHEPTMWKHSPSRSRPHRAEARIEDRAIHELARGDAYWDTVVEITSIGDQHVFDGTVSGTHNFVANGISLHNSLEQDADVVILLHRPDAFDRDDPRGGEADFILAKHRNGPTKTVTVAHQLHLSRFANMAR
The experiment in a line: DnaB intein splicing inhibitors, dose response, biochemical, cell-free fluorescence (AID 449749). The format is functional.

The target of a further experiment is T6, Protein RecA (Mycobacterium tuberculosis, UniProt P9WHJ3).
T6 sequence (P9WHJ3 whole entry): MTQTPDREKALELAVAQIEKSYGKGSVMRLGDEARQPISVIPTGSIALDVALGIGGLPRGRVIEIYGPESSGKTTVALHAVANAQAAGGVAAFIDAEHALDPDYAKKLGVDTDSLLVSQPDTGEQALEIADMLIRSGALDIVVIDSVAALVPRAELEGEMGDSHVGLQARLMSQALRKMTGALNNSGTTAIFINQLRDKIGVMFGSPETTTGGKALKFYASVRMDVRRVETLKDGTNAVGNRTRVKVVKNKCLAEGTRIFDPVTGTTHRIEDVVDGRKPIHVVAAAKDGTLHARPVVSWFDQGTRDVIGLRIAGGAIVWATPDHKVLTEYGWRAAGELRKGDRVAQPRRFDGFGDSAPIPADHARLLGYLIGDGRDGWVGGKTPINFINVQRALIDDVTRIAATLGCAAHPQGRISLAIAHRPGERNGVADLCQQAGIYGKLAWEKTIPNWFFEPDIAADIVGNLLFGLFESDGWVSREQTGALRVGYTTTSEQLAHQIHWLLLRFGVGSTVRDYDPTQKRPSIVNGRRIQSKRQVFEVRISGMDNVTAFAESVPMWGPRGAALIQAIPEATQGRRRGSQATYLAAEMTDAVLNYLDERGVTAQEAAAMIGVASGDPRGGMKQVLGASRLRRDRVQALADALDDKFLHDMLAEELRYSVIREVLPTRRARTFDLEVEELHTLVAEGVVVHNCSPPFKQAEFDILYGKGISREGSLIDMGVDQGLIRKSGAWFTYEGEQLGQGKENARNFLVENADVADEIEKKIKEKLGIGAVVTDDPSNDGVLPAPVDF
The experiment is described as follows: Fluorescence Cell-Free Homogeneous Dose Retest to Identify Inhibitors of RecA-Intein Splicing Activity. [Related pubchem assays (depositor defined):AID2097, AID2223, AID489010, AID492950]. The format is functional.

Experiment [20] addresses T4, Melanocortin receptor 4. The experiment in a line: MC4R antagonist potency on cAMP, dose response, cell-based, TR-FRET, biased antagonists (AID 602298).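 Further: antagonist potency against agonist-stimulated cAMP production.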 It is filed as functional.
Experiment [21] can be described thus: Shn3 3'UTR reporter inhibitors, dose response, cell-based, Clone20 osteoblasts, firefly luciferase, cherry-picked (AID 624132).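 Further: firefly luciferase luminescence from reporter carrying the Shn3 3'UTR in osteoblasts.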 The format is functional.
Experiment [22] can be described thus: HepG2 cell cytotoxicity, dose response, cytotoxicity control for Shn3 inhibitor project, CellTiter-Glo, cherry-picked (AID 624134). The format is functional, cell-based.
Experiment [23] is described as follows: control 3'UTR Renilla luciferase suppression, dose response, counter-screen for Shn3 inhibitor project, cell-based, Clone20-Shn3RL, cherry-picked (AID 624133). The format is functional.
Experiment [24] in a line: nonselective inhibitors of cellular cAMP signaling, dose response, counter-screen for MC4R biased antagonist project, cell-based, TR-FRET cAMP detection (AID 602305).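 Further: U2OS cells stimulated with forskolin near its EC80 as the cAMP inducer; potency is for inhibition of forskolin-stimulated cAMP signaling.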 The format is functional.
The nature of experiment [25]: Fluorescence-based cell-based high throughput dose response assay for inhibitors of the interaction of nucleotide-binding oligomerization domain containing 2 (NOD2) and the receptor-interacting serine-threonine kinase 2 (RIPK2). It is filed as functional. The conditions noted are these: Homo sapiens.
The target of the next experiment is Beta Lactamase (Pseudomonas aeruginosa, UniProt Q932Y6). The experiment in a line: beta-lactamase reporter inhibitor potency, dose response, artefact control for NOD2-RIPK2 interaction inhibitor project, BLA reporter cells, FRET fluorescence (AID 651552). It is filed as functional, cell-based.
Experiment [26] addresses Induced myeloid leukemia cell differentiation protein Mcl-1 (Homo sapiens, UniProt Q07820). It is filed as functional.
The target in experiment [27] is Hepatocyte nuclear factor 4-alpha (Homo sapiens, UniProt P41235). It is filed as functional, cell-based.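 Further: biochemical luminescence-based dose-response counterscreen measuring inhibition of HNF4 dimerization, run alongside a screen for blockers of ABHD5–perilipin-5 interaction; split luciferase complementation of HNF4 fusion proteins in cell lysate measuring dimerization.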
The test system of the next experiment is Vero. The experiment in a line: cells. It is filed as functional. The conditions noted are these: Chlorocebus sabaeus.
The target in experiment [28] is V-type proton ATPase subunit c' (Saccharomyces cerevisiae S288c, UniProt P32842). The experiment is described as follows: Dose Response of Small Molecules that Regulate V-ATPase Proton Transport in Yeast using pHLuorin, Cherry Pick 2. It is filed as functional. The conditions noted are these: read-out: EC50_MICROM.
Sequence of V-type proton ATPase subunit c' (P32842 whole entry): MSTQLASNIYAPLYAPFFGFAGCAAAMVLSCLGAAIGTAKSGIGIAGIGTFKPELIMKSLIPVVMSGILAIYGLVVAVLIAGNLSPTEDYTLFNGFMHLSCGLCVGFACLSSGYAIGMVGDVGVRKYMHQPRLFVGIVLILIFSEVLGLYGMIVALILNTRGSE

T3 sequence (P24666 whole entry): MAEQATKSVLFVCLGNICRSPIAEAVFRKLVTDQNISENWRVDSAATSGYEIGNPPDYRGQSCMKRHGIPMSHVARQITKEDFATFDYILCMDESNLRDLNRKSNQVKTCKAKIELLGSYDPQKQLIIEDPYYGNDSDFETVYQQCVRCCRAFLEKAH
T4 sequence (P32245 whole entry): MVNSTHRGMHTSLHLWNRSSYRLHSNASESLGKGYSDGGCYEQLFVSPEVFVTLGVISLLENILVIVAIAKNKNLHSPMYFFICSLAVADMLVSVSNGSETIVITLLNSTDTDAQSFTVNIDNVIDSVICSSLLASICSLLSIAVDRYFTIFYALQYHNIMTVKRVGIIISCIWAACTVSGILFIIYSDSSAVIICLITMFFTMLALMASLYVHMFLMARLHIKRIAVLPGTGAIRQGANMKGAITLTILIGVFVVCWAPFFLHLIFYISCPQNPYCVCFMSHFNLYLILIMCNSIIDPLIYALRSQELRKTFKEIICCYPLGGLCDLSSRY
Sequence of Induced myeloid leukemia cell differentiation protein Mcl-1 (Q07820 whole entry, the tested form may be a part): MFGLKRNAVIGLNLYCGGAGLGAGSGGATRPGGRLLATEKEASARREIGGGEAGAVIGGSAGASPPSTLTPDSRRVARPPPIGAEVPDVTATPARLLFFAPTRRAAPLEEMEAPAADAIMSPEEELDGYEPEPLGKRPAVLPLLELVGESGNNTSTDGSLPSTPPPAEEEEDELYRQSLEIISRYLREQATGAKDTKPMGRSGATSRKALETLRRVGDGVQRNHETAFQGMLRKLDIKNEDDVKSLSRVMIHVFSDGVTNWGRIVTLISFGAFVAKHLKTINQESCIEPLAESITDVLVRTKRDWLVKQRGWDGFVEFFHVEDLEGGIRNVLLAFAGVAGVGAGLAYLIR
Sequence of Nuclear receptor subfamily 5 group A member 2 (O00482 whole entry): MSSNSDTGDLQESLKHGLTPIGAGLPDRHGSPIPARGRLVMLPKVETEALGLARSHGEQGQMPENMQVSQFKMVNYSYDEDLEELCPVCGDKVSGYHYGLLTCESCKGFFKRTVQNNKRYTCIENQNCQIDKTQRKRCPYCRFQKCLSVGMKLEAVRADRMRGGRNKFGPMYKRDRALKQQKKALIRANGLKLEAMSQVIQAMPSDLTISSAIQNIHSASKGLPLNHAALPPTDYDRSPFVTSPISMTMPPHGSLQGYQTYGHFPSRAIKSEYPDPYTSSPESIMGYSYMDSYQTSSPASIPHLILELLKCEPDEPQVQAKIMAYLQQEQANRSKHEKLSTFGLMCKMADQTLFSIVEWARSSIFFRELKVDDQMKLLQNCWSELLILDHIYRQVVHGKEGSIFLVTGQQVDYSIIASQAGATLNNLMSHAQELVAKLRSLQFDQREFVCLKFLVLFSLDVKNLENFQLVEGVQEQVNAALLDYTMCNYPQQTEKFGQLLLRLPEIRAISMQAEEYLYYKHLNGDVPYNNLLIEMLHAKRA
Sequence of Beta Lactamase (Q932Y6 whole entry): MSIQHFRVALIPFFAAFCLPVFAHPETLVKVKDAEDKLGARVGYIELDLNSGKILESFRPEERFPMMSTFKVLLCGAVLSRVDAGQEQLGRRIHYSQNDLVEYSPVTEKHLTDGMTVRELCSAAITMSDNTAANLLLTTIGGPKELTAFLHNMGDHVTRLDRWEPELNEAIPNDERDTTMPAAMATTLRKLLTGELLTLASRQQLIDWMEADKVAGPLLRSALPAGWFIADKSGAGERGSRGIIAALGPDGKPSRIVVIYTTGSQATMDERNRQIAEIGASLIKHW
Sequence of Luciferin 4-monooxygenase (P08659 whole entry): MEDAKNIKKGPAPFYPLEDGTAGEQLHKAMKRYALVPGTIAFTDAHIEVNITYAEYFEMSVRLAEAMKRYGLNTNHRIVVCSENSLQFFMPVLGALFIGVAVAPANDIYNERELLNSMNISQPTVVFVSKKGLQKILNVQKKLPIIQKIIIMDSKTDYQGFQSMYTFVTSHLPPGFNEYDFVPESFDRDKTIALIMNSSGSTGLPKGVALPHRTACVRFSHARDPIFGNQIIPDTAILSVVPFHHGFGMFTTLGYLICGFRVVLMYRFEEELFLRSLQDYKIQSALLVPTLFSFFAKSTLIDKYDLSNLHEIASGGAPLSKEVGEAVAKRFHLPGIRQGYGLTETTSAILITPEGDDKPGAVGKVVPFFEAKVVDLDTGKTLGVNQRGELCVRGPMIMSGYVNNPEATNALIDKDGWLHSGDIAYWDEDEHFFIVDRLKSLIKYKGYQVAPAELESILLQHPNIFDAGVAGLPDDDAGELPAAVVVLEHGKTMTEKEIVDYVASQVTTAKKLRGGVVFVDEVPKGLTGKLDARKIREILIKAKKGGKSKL
Sequence of Steroidogenic factor 1 (Q13285 whole entry): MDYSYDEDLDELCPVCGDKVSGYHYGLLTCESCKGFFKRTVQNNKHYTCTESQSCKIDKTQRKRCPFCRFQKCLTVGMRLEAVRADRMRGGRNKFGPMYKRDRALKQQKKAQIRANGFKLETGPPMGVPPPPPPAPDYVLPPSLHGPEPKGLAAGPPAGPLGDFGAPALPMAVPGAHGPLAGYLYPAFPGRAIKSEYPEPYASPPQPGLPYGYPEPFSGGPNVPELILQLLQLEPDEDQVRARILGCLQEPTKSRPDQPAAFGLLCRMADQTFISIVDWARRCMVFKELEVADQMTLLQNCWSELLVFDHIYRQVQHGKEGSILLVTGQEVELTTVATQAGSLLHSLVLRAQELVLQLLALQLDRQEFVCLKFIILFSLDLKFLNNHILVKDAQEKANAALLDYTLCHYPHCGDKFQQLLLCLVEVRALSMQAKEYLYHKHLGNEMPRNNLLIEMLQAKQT
Sequence of Tyrosine-protein phosphatase non-receptor type 5 (P54829 whole entry): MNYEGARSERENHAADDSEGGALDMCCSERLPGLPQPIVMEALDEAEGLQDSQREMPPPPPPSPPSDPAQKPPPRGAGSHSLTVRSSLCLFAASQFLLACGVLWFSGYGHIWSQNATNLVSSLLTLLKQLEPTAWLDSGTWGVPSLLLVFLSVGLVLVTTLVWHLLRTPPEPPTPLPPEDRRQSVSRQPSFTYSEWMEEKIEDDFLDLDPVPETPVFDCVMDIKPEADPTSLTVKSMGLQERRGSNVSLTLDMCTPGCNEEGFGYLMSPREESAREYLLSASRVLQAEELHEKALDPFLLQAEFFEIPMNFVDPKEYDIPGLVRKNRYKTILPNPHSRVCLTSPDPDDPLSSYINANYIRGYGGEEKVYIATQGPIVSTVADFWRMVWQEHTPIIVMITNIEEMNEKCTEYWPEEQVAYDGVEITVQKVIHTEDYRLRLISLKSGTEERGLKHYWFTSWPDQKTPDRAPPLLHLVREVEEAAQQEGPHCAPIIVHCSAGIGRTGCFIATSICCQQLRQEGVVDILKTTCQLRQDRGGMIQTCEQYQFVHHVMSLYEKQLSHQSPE
Sequence of Dual specificity protein phosphatase 3 (P51452 whole entry): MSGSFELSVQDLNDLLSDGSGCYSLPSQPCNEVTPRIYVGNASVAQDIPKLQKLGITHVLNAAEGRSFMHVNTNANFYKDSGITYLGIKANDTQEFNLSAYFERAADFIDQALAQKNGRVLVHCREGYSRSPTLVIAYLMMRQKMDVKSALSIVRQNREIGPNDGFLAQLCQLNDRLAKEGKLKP
Sequence of Hepatocyte nuclear factor 4-alpha (P41235 whole entry, the tested form may be a part): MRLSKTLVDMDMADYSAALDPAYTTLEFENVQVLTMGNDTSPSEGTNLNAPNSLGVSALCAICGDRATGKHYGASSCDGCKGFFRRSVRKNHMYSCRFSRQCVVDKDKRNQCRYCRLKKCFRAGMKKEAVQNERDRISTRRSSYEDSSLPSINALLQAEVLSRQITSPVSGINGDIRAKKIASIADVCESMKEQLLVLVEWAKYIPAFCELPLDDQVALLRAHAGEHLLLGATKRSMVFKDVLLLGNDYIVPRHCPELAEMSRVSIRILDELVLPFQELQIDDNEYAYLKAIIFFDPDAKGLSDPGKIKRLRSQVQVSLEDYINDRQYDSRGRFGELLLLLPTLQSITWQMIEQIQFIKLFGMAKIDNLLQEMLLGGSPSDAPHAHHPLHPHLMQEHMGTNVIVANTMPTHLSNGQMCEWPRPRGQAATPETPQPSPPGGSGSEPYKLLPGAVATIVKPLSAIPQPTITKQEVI
Sequence of Tyrosine-protein phosphatase non-receptor type 11 (Q06124 whole entry): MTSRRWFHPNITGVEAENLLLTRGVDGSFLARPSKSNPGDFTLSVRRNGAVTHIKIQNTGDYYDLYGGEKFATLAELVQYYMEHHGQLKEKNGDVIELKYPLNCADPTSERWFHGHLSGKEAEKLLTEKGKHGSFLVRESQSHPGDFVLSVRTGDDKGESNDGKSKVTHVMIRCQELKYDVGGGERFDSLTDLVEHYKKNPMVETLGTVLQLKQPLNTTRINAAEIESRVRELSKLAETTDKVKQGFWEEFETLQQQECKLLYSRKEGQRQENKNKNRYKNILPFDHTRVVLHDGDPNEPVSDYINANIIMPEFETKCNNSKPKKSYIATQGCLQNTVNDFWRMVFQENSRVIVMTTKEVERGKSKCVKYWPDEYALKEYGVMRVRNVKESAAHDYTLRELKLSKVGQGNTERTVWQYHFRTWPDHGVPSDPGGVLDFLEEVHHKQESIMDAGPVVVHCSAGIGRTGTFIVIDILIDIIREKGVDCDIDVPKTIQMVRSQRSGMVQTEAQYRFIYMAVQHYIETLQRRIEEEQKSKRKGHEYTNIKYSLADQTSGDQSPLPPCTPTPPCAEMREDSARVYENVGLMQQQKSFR

With `Cc1ccc(NC(=O)CCn2c(=S)oc3ccccc32)cc1F`, the results for the IC50 in experiment [1], in experiment [2] and in experiment [3] were 3.14 µM (active), > 80 µM (inactive) and 7.02 µM (active), respectively.
Regarding `N#CC1=C(N)OC2=C(C(=O)CC(c3ccco3)C2)C1c1ccc(OCc2c(F)cccc2Cl)cc1` (stereo not drawn), the EC50 in experiment [4] and in experiment [5] was > 300 µM (not active) each time. The IC50 in experiment [6] is > 80 µM (inactive); in experiment [7], 35.1 µM (inactive).
On to `CCC(=O)Nc1nnc(SCC(=O)NCCc2ccc(OC)c(OC)c2)s1`, for which the EC50 in experiment [8] and in experiment [9] was > 112 µM (not active) in each case. Moreover, the figures for the IC50 (in [10]; at Steroidogenic factor 1; in experiment [11]) were 12 µM (inactive), 2.05 µM (active) and 35.9 µM (inactive), respectively.
On to `CN(C)CCCN(C(=O)CCc1ccccc1)c1nc2ccc(Cl)cc2s1`, for which the EC50 is > 60 µM (not active) in experiment [12], > 120 µM (not active) in experiment [13], > 120 µM (not active) in experiment [14] and > 89.2 µM (inactive) on Melanocortin receptor 4 [18]. Also, the CC50 was 16.6 µM (active) in [15], 12.4 µM (active) in [16] and 17.1 µM (active) in [17]. Moreover, the IC50 in “cells” was 22.9 µM (active).
As for `Cc1cccc(CS(=O)(=O)c2ncc(Cl)c(C(=O)NCc3ccc4c(c3)OCO4)n2)c1`, the half-maximal activity concentration (AC50) in experiment [19] is 3.39 µM (active); in [21], 0.938 µM (active); in experiment [22], 41.3 µM (active); in experiment [23], 11.3 µM (active). Besides, the EC50 on Protein RecA was 3.52 µM (active). In addition, the IC50 on Melanocortin receptor 4 [20] is > 64.6 µM (inactive); in [24], > 64.6 µM (inactive); in experiment [25], 3.95 µM (active); on Beta Lactamase, 21.1 µM (inactive).
Turning to `Cc1cccc(NC(=O)CSc2nnc(-c3ccco3)c(-c3ccco3)n2)c1`, the IC50 was 5.78 µM (active) in experiment [26] and 1.42 µM (active) in experiment [27].
For the compound `CN1C(=O)/C(=C\c2ccc(Br)s2)C(=O)NC1=S`, the cytotoxic concentration (CC50) with Vero is 22.9 µM (active). For the same compound, the EC50 in [28] is 6.43 µM (active).
